Results: US9168259B2 (GRÜNENTHAL GMBH, priority 2010, dated 2015)
Read-outs that look alike come from different tables or passages of the source.

Biological target: T1, KCNQ2/3 channels (Homo sapiens, UniProt O43525+O43526)
T1 construct: expressed in transfected cells
Assay: Fluorescence assay using a voltage sensitive dye (fluorimetry)
Assay type: cell-based

[1] = CHO-K1, plateau effect relative to saturated retigabine (50 μM) = 100%, CHO-K1 cells expressing KCNQ2/3, negative values = antagonistic, read-out: Fluorimetry % efficacy (retigabine = 100%)
[2] = CHO-K1 cells expressing KCNQ2/3, IC50 where % efficacy is negative, read-out: Fluorimetry EC50/IC50
[3] = CHO-K1, read-out: Fluorimetry % efficacy (retigabine = 100%)

T1 sequence (O43526 whole entry): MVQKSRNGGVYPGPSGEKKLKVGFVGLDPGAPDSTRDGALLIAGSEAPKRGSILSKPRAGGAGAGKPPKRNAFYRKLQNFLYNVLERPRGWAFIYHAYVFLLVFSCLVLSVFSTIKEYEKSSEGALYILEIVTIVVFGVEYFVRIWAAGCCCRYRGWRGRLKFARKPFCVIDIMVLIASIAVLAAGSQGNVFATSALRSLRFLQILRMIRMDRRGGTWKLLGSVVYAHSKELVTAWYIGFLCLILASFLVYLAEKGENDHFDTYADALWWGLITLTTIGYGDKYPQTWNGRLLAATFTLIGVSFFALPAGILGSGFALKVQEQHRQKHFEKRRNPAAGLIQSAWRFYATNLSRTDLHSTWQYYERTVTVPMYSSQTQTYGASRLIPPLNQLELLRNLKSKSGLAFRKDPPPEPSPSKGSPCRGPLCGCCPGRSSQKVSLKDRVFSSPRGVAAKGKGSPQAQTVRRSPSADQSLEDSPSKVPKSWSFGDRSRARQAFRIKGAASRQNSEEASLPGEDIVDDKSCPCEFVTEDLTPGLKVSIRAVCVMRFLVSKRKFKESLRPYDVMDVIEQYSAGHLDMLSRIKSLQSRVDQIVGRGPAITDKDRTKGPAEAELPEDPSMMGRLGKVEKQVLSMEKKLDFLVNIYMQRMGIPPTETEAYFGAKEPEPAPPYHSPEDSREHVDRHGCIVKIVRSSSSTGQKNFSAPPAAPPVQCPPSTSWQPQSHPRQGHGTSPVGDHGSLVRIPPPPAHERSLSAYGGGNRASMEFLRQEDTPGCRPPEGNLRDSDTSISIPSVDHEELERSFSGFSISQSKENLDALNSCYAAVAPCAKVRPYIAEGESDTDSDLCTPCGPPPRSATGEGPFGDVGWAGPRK
T1 sequence (O43525 whole entry): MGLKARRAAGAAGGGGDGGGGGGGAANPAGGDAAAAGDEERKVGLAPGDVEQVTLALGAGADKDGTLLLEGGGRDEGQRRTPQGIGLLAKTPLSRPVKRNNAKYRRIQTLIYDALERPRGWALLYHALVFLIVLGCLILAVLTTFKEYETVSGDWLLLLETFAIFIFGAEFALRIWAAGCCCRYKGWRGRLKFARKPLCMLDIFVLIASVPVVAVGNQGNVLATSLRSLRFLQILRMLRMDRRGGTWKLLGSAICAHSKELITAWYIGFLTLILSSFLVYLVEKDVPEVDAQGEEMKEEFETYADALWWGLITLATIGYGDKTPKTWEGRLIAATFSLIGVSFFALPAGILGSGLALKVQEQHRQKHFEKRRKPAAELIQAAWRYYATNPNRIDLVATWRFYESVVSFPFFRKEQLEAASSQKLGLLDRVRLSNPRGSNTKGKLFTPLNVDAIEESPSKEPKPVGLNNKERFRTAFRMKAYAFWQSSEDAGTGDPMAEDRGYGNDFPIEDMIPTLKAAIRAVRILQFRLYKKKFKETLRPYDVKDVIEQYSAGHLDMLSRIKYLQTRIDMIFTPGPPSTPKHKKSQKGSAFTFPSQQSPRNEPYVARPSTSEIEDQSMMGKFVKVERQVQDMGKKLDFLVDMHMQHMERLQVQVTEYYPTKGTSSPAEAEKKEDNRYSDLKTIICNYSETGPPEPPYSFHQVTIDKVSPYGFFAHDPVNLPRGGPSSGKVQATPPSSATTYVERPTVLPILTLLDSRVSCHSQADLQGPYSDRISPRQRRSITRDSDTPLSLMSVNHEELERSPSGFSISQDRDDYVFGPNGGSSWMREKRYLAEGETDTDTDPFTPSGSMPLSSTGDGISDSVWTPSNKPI

| Emax [1] [%] | EC50 [2] [nM] | Compound | EC50 [nM] | Emax [3] [%] |
| --- | --- | --- | --- | --- |
| 156 | 168 | Cc1cc(N2CCOCC2)nc(C2CC2)c1C(=O)NCc1cccc(F)c1 [Example 330, 2-Cyclopropyl-N-[(3-fluorophenyl)-methyl]-4-methyl-6-morpholin-4-yl-pyridine-3-carboxylic acid amide] |  |  |
| 183 | 430 | CCSc1nc(N2CCOCC2)cc(OC)c1C(=O)NCc1cccc(F)c1 [Example 336, 2-Ethylsulfanyl-N-[(3-fluorophenyl)-methyl]-4-methoxy-6-morpholin-4-yl-pyridine-3-carboxylic acid amide] |  |  |
| 152 | 274 | CCSc1nc(N2CCOCC2CCOC)cc(C)c1C(=O)NCc1cccc(F)c1 (centres unmarked) [Example 340, 2-Ethylsulfanyl-N-[(3-fluorophenyl)-methyl]-6-[3-(2-methoxy-ethyl)-morpholin-4-yl]-4-methyl-pyridine-3-carboxylic acid amide] |  |  |
| 22 |  | CC(=O)N(C)c1nc(N2CCOCC2)cc(C)c1C(=O)NCc1cccc(F)c1 [Example 341, 2-(Acetyl-methyl-amino)-N-[(3-fluorophenyl)-methyl]-4-methyl-6-morpholin-4-yl-pyridine-3-carboxylic acid amide] |  |  |
| 157 | 729 | CCSc1nc(N2CCOCC2)cc(COC)c1C(=O)NCc1cccc(F)c1 [Example 346, 2-Ethylsulfanyl-N-[(3-fluorophenyl)-methyl]-4-(methoxymethyl)-6-morpholin-4-yl-pyridine-3-carboxylic acid amide] |  |  |
| 118 | 489 | COCc1cc(CNC(=O)c2c(C)cc(N3CCOCC3)nc2C2CC2)ccc1F [Example 351, 2-Cyclopropyl-N-[[4-fluoro-3-(methoxymethyl)-phenyl]methyl]-4-methyl-6-morpholin-4-yl-pyridine-3-carboxylic acid amide] |  |  |
| 166 | 287 | CCSc1nc(N2CCOC[C@H]2C)cc(C)c1C(=O)NCc1ccc(F)c(COC)c1 [Example 352, 2-Ethylsulfanyl-N-[[4-fluoro-3-(methoxymethyl)-phenyl]-methyl]-4-methyl-6-[(3R)-3-methyl-morpholin-4-yl]-pyridine-3-carboxylic acid amide] |  |  |
| 46 |  | CCSc1nc(N2CCOCC2)cc(C)c1C(=O)NCc1ccc(F)c(CO)c1 [Example 353, 2-Ethylsulfanyl-N-[[4-fluoro-3-(hydroxymethyl)-phenyl]-methyl]-4-methyl-6-morpholin-4-yl-pyridine-3-carboxylic acid amide] |  |  |
| 167 | 721 | COCc1ccc(CNC(=O)c2c(C)cc(N3CCOCC3)nc2C2CC2)cc1F [Example 355, 2-Cyclopropyl-N-[[3-fluoro-4-(methoxymethyl)-phenyl]methyl]-4-methyl-6-morpholin-4-yl-pyridine-3-carboxylic acid amide] |  |  |
| 140 | 6320 | COCc1nc(N2CCOCC2)cc(C)c1C(=O)NCc1cccc(F)c1 [Example 356, N-[(3-Fluorophenyl)-methyl]-2-(methoxymethyl)-4-methyl-6-morpholin-4-yl-pyridine-3-carboxylic acid amide] |  |  |

Continued, compound first:

| Compound | Emax [1] [%] | EC50 [2] [nM] | EC50 [nM] | Emax [3] [%] |
| --- | --- | --- | --- | --- |
| Cc1cc(N2CCOCC2)nc(C2CC2)c1C(=O)NCCCC(F)(F)F [Example 329, 2-Cyclopropyl-4-methyl-6-morpholin-4-yl-N-(4,4,4-trifluoro-butyl)-pyridine-3-carboxylic acid amide] | 170 | 763 |  |  |
| Cc1cc(N2CCOCC2)nc(C2CC2)c1C(=O)NCc1ccc(F)cc1 [Example 331, 2-Cyclopropyl-N-[(4-fluorophenyl)-methyl]-4-methyl-6-morpholin-4-yl-pyridine-3-carboxylic acid amide] | 144 | 148 |  |  |
| Cc1cc(N2CCOCC2)nc(C2CC2)c1C(=O)NCc1ccc(F)c(F)c1 [Example 332, 2-Cyclopropyl-N-[(3,4-difluoro-phenyl)-methyl]-4-methyl-6-morpholin-4-yl-pyridine-3-carboxylic acid amide] | 166 | 109 |  |  |
| Cc1cc(N2CCOCC2)nc(C2CC2)c1C(=O)NCc1cc(F)cc(F)c1 [Example 333, 2-Cyclopropyl-N-[(3,5-difluoro-phenyl)-methyl]-4-methyl-6-morpholin-4-yl-pyridine-3-carboxylic acid amide] | 169 | 98 |  |  |
| Cc1cc(N2CCOCC2)nc(C2CC2)c1C(=O)NCc1ccc(C(F)(F)F)cc1 [Example 334, 2-Cyclopropyl-4-methyl-6-morpholin-4-yl-N-[[4-(trifluoromethyl)-phenyl]-methyl]-pyridine-3-carboxylic acid amide] | 124 | 96 |  |  |
| Cc1cc(N2CCOCC2)nc(C2CC2)c1C(=O)NCc1ccc(Cl)cc1 [Example 335, N-[(4-Chlorophenyl)-methyl]-2-cyclopropyl-4-methyl-6-morpholin-4-yl-pyridine-3-carboxylic acid amide] | 162 | 85 |  |  |
| COCCSc1nc(N2CCOCC2)cc(C)c1C(=O)NCCCC(C)(C)C [Example 337, N-(4,4-Dimethyl-pentyl)-2-(2-methoxy-ethylsulfanyl)-4-methyl-6-morpholin-4-yl-pyridine-3-carboxylic acid amide] | 237 | 117 |  |  |
| CCSc1nc(N(CCCOC)Cc2ccc(F)cc2)cc(C)c1C(=O)NCc1cccc(F)c1 [Example 338, 2-Ethylsulfanyl-N-[(3-fluorophenyl)-methyl]-6-[(4-fluorophenyl)-methyl-(3-methoxy-propyl)-amino]-4-methyl-pyridine-3-carboxylic acid amide] | 73 | 320 |  |  |
| CCSc1nc(N2CCOCC2)cc(C)c1C(=O)NCCC(C)C(C)(C)C (centres unmarked) [Example 339, 2-Ethylsulfanyl-4-methyl-6-morpholin-4-yl-N-(3,4,4-trimethyl-pentyl)-pyridine-3-carboxylic acid amide] | 202 | 37 |  |  |
| CCSc1nc(N(CCOC)Cc2ccc(F)cc2)cc(C)c1C(=O)NCc1cccc(F)c1 [Example 342, 2-Ethylsulfanyl-N-[(3-fluorophenyl)-methyl]-6-[(4-fluorophenyl)-methyl-(2-methoxy-ethyl)-amino]-4-methyl-pyridine-3-carboxylic acid amide] | 124 | 291 |  |  |
| CCSc1nc(N2CCOCC2)cc(C)c1C(=O)NCCCC1(C)COC1 [Example 343, 2-Ethylsulfanyl-4-methyl-N-[3-(3-methyl-oxetan-3-yl)-propyl]-6-morpholin-4-yl-pyridine-3-carboxylic acid amide] | 163 | 6840 |  |  |
| CCSc1nc(N2CCOCC2)cc(C)c1C(=O)NCC#CC(C)(C)C [Example 344, N-(4,4-Dimethyl-pent-2-ynyl)-2-ethylsulfanyl-4-methyl-6-morpholin-4-yl-pyridine-3-carboxylic acid amide] | 253 | 41 |  |  |
| CCSc1nc(N2C3CCC2COC3)cc(C)c1C(=O)NCc1cccc(F)c1 [Example 345, 2-Ethylsulfanyl-N-[(3-fluorophenyl)-methyl]-4-methyl-6-(3-oxa-8-azabicyclo[3.2.1]octan-8-yl)-pyridine-3-carboxylic acid amide] | 200 | 122 |  |  |
| CCC(C)c1nc(N2CCOCC2)cc(C)c1C(=O)NCc1ccc(Cl)cc1 (centres unmarked) [Example 347, N-[(4-Chlorophenyl)-methyl]-4-methyl-2-(1-methyl-propyl)-6-morpholin-4-yl-pyridine-3-carboxylic acid amide] | 156 | 41 |  |  |
| CCSc1nc(N2CCOCC2)cc(C)c1C(=O)NCCCC(C)(C)CC [Example 348, N-(4,4-Dimethyl-hexyl)-2-ethylsulfanyl-4-methyl-6-morpholin-4-yl-pyridine-3-carboxylic acid amide] | 228 | 22 |  |  |
| COCCOc1nc(N2CCOCC2)cc(C)c1C(=O)NCCCC(C)(C)C [Example 349, N-(4,4-Dimethyl-pentyl)-2-(2-methoxy-ethoxy)-4-methyl-6-morpholin-4-yl-pyridine-3-carboxylic acid amide] | 216 | 284 |  |  |
| CCSc1nc(N2CCOCC2)cc(C)c1C(=O)NCCCC1(C)CC1 [Example 350, 2-Ethylsulfanyl-4-methyl-N-[3-(1-methyl-cyclopropyl)-propyl]-6-morpholin-4-yl-pyridine-3-carboxylic acid amide] | 226 | 79 |  |  |
| COCCCc1nc(N2CCOCC2)cc(C)c1C(=O)NCCCC(C)(C)C [Example 354, N-(4,4-Dimethyl-pentyl)-2-(3-methoxy-propyl)-4-methyl-6-morpholin-4-yl-pyridine-3-carboxylic acid amide] | 204 | 1540 |  |  |
| CC(C)c1cc(N2CCOCC2)nc(C(C)C)c1C(=O)NCc1ccc(Cl)cc1 [Example 357, N-[(4-Chlorophenyl)-methyl]-2,4-diisopropyl-6-morpholin-4-yl-pyridine-3-carboxylic acid amide] | 17 |  |  |  |
| COCCc1nc(N2CCOCC2)cc(C)c1C(=O)NCCCC(C)(C)C [Example 358, N-(4,4-Dimethyl-pentyl)-2-(2-methoxy-ethyl)-4-methyl-6-morpholin-4-yl-pyridine-3-carboxylic acid amide] |  |  | 1130 | 234 |
| CCc1cc(N2CCOCC2)nc(CC)c1C(=O)NCc1ccc(Cl)cc1 [Example 359, N-[(4-Chlorophenyl)-methyl]-2,4-diethyl-6-morpholin-4-yl-pyridine-3-carboxylic acid amide] |  |  | 237 | 141 |
